# Assays:
# [1] = test system: association of actin with myosin in sphincteric smooth muscle cells; experiment: Immunoprecipitation/immunoblot: acetylcholine-induced association of actin with myosin; assay type: cell-based, rat; conditions: 0.1 μM acetylcholine
# Experimental: (§1) Decreased association of actin with myosin and decreased association of tropomyosin with HSP27 in sphincteric smooth muscle cells from old rats (28-33 month old) was observed when compared to adult counterparts (18 months old). Whole cell lysates (WCL) from acetylcholine (0.1 μM) stimulated and unstimulated sphincteric smooth muscle cells of adult and old rats were extracted and immunoprecipitated as described previously (Somara et al, Amer. J. Physiol. 286(6): C1290-1301, 2004). Briefly, actin was immunoprecipited using an anti-actin antibody followed by immunoblotting with an anti-myosin antibody. […] To further investigate phospho-HSP27-induced reinstatement of smooth muscle cell contractile function, sphincter smooth muscle cells isolated from old rats IAS were transfected with phosphomimic-HSP27 as described previously. Whole cells lysates were extracted and immunoprecipitated as described previously (Somara et al, Amer. J. Physiol. 286(6): C1290-1301, 2004).
# [2] = test system: association of tropomyosin with HSP27 in sphincteric smooth muscle cells; experiment: Immunoprecipitation/immunoblot: acetylcholine-induced association of tropomyosin with HSP27; assay type: cell-based, rat; conditions: 0.1 μM acetylcholine
# Experimental: as §1
# rat IAS cells = experiment: Acetylcholine-induced contraction of isolated sphincteric smooth muscle cells of adult and old rats; assay type: cell-based; conditions: for cell population with less than 80 μM cell length: 30 second stimulation
# Experimental: To determine the effect of acetylcholine on contraction of isolated muscle cells, acetylcholine (10^−7 M) was added to a suspension of isolated smooth muscle cells for 30 seconds or 4 minutes with untreated cells as controls. The reaction was stopped and cells were fixed by the addition of 0.1 ml of acrolein at a final concentration of 0.1%. Individual cell lengths were measured by computerized image micrometry (Bitar et al., Am J Physiol 242: G400-G407, 1982. Bitar et al., Science 216: 531-533, 1982). The length of cells in the control state or after addition of acetylcholine was obtained by measuring 30-50 cells encountered randomly in successive microscopic fields from each of three separate experiments. The contractile response is defined as the decrease in the average length of the cells counted and is expressed as the percent change from the control length. Acetylcholine-induced contraction of isolated sphincteric smooth muscle cells was defined as the percent decrease in cell length compared to control. […] In old rats, 10^−7M acetylcholine-induced contraction at 30 seconds was approximately 3-fold less forceful (12.8±4.4%) than adult rat cells. […] In addition, after acetylcholine-induced contraction, there was a preponderance of longer cells and in old rats (24% above 80 μm) when compared to adult counterparts (17% above 80).
# bioengineered IAS rings = experiment: Isometric force of bioengineered IAS rings from adult, old and phosphomimic-HSP27 transfected old rat cells; assay type: cell-based
# Experimental: To measure the passive baseline force, the differentiation media in the plate containing the bioengineered sphincter was replaced with 37° C. Krebs solution (NaCl (119 mM), KCl (4.6 mM), NaHCO3 (15 mM), CaCl2 (1.5 mM), MgCl2 (1.2 mM), […], and glucose (11 mM)) and the plate was placed on a heated aluminum platform, which maintained a temperature of 37° C. until the testing was complete. For contractility measurements, one end of the bioengineered sphincter was anchored by a stainless steel pin (10 mm×0.1 mm diameter) to the PDMS substrate within the plate, while another stainless steel pin was bent in the shape of a hook and attached by canning wax to a force transducer (resolution of 1.4 μN and range of 2mN) as previously described (Dennis et al., In Vitro Cellular & Developmental Biology Animal 36: 327-335, 2000, Macpherson et al., J Physiol 500: 523-533, 1997) and as depicted in FIG. 1 (Panels F and G). The bioengineered sphincter was stretched approximately 50% of its resting length using a three-axis micromanipulator. The ring was allowed to sit for 20 minutes in order to reestablish a stable baseline level of force (Pb), which was measured as the average baseline passive force preceding stimulation. All force measurements were collected at 100 samples/second for 60 seconds and recorded using a computer with LabVIEW data acquisition software (National Instruments, Austin, Tex.). A median filter of rank 2 was applied to all raw force data before being stored to minimize digitization noise without causing a phase delay for rapidly changing forces. The peak isometric force (ΔP) was determined by subtracting the Pb from the total force values. Specific force (sΔP) was calculated by dividing ΔP by the CSA. Data analysis was done using LabVIEW and Microsoft Excel software programs. Each measurement was repeated at least three times and the mean value was recorded. Bioengineered sphincter rings using smooth muscle cells isolated from IAS of adult and old rats were generated as described in Example 2 to study the molecular mechanism of aging on sphincteric smooth muscle. […] This corresponds to the previously described acetylcholine-induced contraction of human IAS muscle strips (16, 17, 27). […] Phosphomimic-HSP27 was introduced into the sphincteric smooth muscle cells from old rats. […] To test this hypothesis on a physiological level, bioengineered sphincter rings were made from phosphomimic-HSP27 transfected-IAS smooth muscle cells of old rats and the contractile response was assessed.
compound,measurement,setting,value
CC(=O)OCC[N+](C)(C)C [acetylcholine],acetylcholine-induced association of actin with myosin,"[1]; adult rats, 30 seconds",243.70±8.20%
same,acetylcholine-induced association of actin with myosin,"[1]; adult rats, 4 minutes",274.34±10.43%
same,acetylcholine-induced association of actin with myosin,"[1]; old rats, 30 sec",175.32±10.12%
same,acetylcholine-induced association of actin with myosin,"[1]; old rats, 4 minutes",231.79±10.45%
same,acetylcholine-induced association of tropomyosin with HSP27,"[2]; adult rats, 30 seconds",218.67±5.48%
same,acetylcholine-induced association of tropomyosin with HSP27,"[2]; adult rats, 4 minutes",268.39±6.38%
same,acetylcholine-induced association of tropomyosin with HSP27,"[2]; old rats, 30 sec",149.93±8.60%
same,acetylcholine-induced association of tropomyosin with HSP27,"[2]; old rats, 4 minutes",223.21±7.46%
same,fold less forceful contraction in old than adult rat cells,"rat IAS cells; 10^−7 M acetylcholine, 30 seconds",approximately 3 fold
same,"contraction, percent decrease in cell length compared to control","rat IAS cells; adult rat IAS cells, 10^−7 M acetylcholine, 30 seconds",44.7±1.34%
same,"contraction, percent decrease in cell length compared to control","rat IAS cells; adult rat IAS cells, 10^−7 M acetylcholine, 4 minutes",40.65±1.43%
same,cell population with less than 80 μM cell length,"rat IAS cells; adult rat IAS cells, 10^−7 M acetylcholine",89%
same,longer cells above 80 after acetylcholine-induced contraction,rat IAS cells; adult rats,17%
same,"contraction, percent decrease in cell length compared to control","rat IAS cells; old rat IAS cells, 10^−7 M acetylcholine, 30 seconds",12.8±4.4%
same,"contraction, percent decrease in cell length compared to control","rat IAS cells; old rat IAS cells, 10^−7 M acetylcholine, 4 minutes",16.99±6.07%
same,cell population with less than 80 μM cell length,"rat IAS cells; old rat IAS cells, 10^−7 M acetylcholine",71%
same,longer cells above 80 μm after acetylcholine-induced contraction,rat IAS cells; old rats,24%
same,"maximum force of old rings, fold less than adult rings (FIG. 5 panel B)",bioengineered IAS rings; 10^−6 M acetylcholine,approximately 3 fold
same,average ΔP / force generated,"bioengineered IAS rings; adult rat IAS rings, 10^−6 M acetylcholine",8.925±2.4 μN
same,maximum force generated (FIG. 5 panel A),"bioengineered IAS rings; adult rat rings, n=3",10.4±1.27
same,force generated,"bioengineered IAS rings; old rat IAS rings, 10^−6 M acetylcholine",5.55±1.1 μN
same,maximum force generated (FIG. 5 panel A),"bioengineered IAS rings; old rat rings, n=4",5.5±1.09
same,less force generated by old rings than adult rings,bioengineered IAS rings; stimulated with acetylcholine,approximately 50%

# Reference: patent publication US7368279B2, “Three dimensional bioengineered smooth muscle tissue and sphincters and methods therefor” (The Regents of The University of Michigan, priority 2004, dated 2008)
